The test system of this experiment is hES cell derived embryoid bodies. Put plainly: Phenotype of embryoid body cells after 6 days with n-butyrate: immunocytochemistry, glycogen (PAS), BrdU (Example 2). It is filed as cell-based, human. To be noted: EBs on Matrigel, 20% FBS + 5 mM sodium n-butyrate. How it is done:
Cells were grown on chamber slides in the indicated growth medium, and labeled with 10 μM BrdU for 24 h. Cells were then fixed with 3:1 methanol: acetic acid for 30 minutes, and air-dried overnight in the dark. The fixed cells were rinsed once in PBS, and denatured in 0.07 N NaOH for 2 min followed by quick rinses in PBS pH 8.5 and pH7.4 several times. They were then blocked using 1.5% goat serum (Vector Labs) for 15 min, and incubated with anti BrdU antibody (Sigma) diluted 1:500 in 1.5% goat serum and 0.05% Tween™ 20 for 2 h. The samples were washed thrice in PBS, and then incubated with secondary antibody, which was biotinylated goat anti-mouse immunoglobulin (Vector Labs), at 10 μg/mL diluted in 1.5% horse serum for 30 min. […] Hoechst HO33258 stain (bisbenzimide, Sigma Cat. No. B2883) was mixed into the streptavidin solution at 2.5uM final concentration to stain all the nuclei.
The medium was changed daily or every other day. There was a lot of cell death on day 1 followed by less cell death on the subsequent days.
On the sixth day after plating in the differentiation agent, the cells were analyzed for expression of markers by RT-PCR and immunocytochemistry, following the procedures outlined earlier. Glycogen content in these cells was determined using periodic acid Schiff stain. The number of cells in S phase of cell cycle was determined by incubating the cells with 10 μM BrdU on day 5 after plating, and subsequently staining with anti-BrdU antibody 24 hours later.

The text below walks through data of patent publication US7256042B2, “Process for making hepatocytes from pluripotent stem cells” (Geron Corporation, priority 2000, dated 2007).

Each structure is given as a SMILES string.

For the compound `CCCC(=O)[O-].[Na+]` [Sodium n-butyrate], for the setting “day 6”, the “Albumin, % positive cells” value was found to be 55%; the “CK8, % positive cells” value was 100%; the “CK18, % positive cells” value was determined as 100%; the “CK19, % positive cells” value worked out at 100%. In addition, for the setting “day 6”, the “Desmin, % positive cells” value turned out to be 0%; the “Glycogen staining (Periodic Acid Schiff), % positive cells” value was determined as 60%; the “α1-antitrypsin, % positive cells” value came out at 90%; the “α-fetoprotein, % positive cells” value is reported as 0%. The “BrdU staining, % positive cells” value (10 μM BrdU on day 5, stained 24 hours later) is recorded as 16%.
